Assay results reported in US12503475B2 (Centessa Pharmaceuticals (UK) Limited, priority 2020, dated 2025).

Target: T1, human orexin type 2 receptor (hOX2R) (Homo sapiens, UniProt O43614)
T1 construct: expressed in transfected cells
T1 sequence (O43614 1-444): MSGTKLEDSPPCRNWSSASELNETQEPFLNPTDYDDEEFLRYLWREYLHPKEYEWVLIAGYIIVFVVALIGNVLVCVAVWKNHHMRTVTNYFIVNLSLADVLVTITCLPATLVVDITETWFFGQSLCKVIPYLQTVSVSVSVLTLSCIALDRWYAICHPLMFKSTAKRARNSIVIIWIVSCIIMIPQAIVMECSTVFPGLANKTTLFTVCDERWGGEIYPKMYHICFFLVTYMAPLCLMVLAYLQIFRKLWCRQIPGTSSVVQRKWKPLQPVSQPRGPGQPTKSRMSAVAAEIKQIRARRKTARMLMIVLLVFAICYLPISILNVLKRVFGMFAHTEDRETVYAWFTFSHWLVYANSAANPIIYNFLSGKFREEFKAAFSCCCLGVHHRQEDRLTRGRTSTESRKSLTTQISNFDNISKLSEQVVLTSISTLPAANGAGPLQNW
Assay: Measurement of orexin type 2 receptor agonist activity (FLIPR calcium fluorescence)
Assay type: cell-based
Settings: CHO cells expressing hOX2R, FLIPR calcium fluorescence; for EC50: read-out: hOx2 pEC50 (converted); for Emax: CHO, read-out: hOx2 Emax (%)
How it was run: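 Agonism was read as fluorescence in cells stably expressing human OX2R. E. is the response at 10 μM relative to orexin A as full agonist (100%).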

Work on `CC(C)(O)C(=O)N1CC2(CC2)[C@H](NS(=O)(=O)CF)[C@@H]1Cc1cccc(-c2cccc(F)c2)c1F` [Compound 177, N-((6S,7S)-6-((2,3′-difluoro-[1,1′-biphenyl]-3-yl)methyl)-5-(2-hydroxy-2-methylpropanoyl)-5-azaspiro[2.4]heptan-7-yl)-1-fluoromethanesulfonamide] yielded an EC50 of 1 to 10 nM and an Emax of 90 to 100%.

With `O=C(NCC1(F)CC1)N1CC2(CC2)[C@H](NS(=O)(=O)C(F)F)[C@@H]1Cc1cc(F)cc(-c2ccccc2)c1F` [Compound 417, (6S,7S)-6-(2,5-difluoro-[1,1′-biphenyl]-3-yl)methyl)-7-((difluoromethyl)sulfonamido)-N-((1-fluorocyclopropylmethyl)-5-azaspiro[2.4]heptane-5-carboxamide] the EC50 was 1 to 10 nM and the Emax was 90 to 100%.

Compound `C[C@@H](C#N)S(=O)(=O)N[C@@H]1[C@H](Cc2cccc(-c3ccccc3)c2)N(C(=O)[C@H]2CCO2)CC12CC2` [Compound 338, (S)-N-((6S,7S)-6-([1,1′-biphenyl]-3-ylmethyl)-5-((R)-oxetane-2-carbonyl)-5-azaspiro[2.4]heptan-7-yl)-1-cyanoethane-1-sulfonamide] has an EC50 of 10 to 100 nM and an Emax of 90 to 100%.

In the case of `C[C@@H](F)C(=O)N1CC2(CC2)[C@H](NS(=O)(=O)C(F)F)[C@@H]1Cc1cc(F)cc(-c2cc(F)cc(F)c2)c1F` [Compound 406, 1,1-difluoro-N-((6S,7S)-5-((R)-2-fluoropropanoyl)-6-((2,3′,5,5′-tetrafluoro-[1,1′-biphenyl]-3-yl)methyl)-5-azaspiro[2.4]heptan-7-yl)methanesulfonamide], the EC50 is reported as 0.0794 to 1 nM and the Emax is reported as 90 to 100%.

`N#CC1(CNC(=O)N2CC3(CC3)[C@H](NS(=O)(=O)CF)[C@@H]2Cc2cccc(-c3ccccc3)c2F)CC1` [Compound 186, (6S,7S)-N-((1-cyanocyclopropyl)methyl)-6-((2-fluoro-[1,1′-biphenyl]-3-yl)methyl)-7-((fluoromethyl)sulfonamido)-5-azaspiro[2.4]heptane-5-carboxamide] gave an EC50 of 0.0794 to 1 nM and an Emax of 90 to 100%.

`CC(C)(O)C(=O)N1CC2(CC2)C(NS(C)(=O)=O)C1Cc1cccc(-c2cc(F)cc(F)c2)c1F` (racemic) [Compound 28, N-(5-(2-hydroxy-2-methylpropanoyl)-6-((2,3′,5′-trifluoro-[1,1′-biphenyl]-3-yl)methyl)-5-azaspiro[2.4]heptan-7-yl)methanesulfonamide] was tested, and the EC50 was 10 to 100 nM and the Emax was 90 to 100%.

For `C[C@H]1C[C@@H]1S(=O)(=O)N[C@H]1[C@@H](Cc2cccc(-c3ccccc3)c2)N(C(=O)[C@H]2CCO2)CC12CC2` (relative stereo) [Compound 312, (1S*,2S*)-N-(6R,7R)-6-([1,1′-biphenyl]-3-ylmethyl)-5-((R)-oxetane-2-carbonyl)-5-azaspiro[2.4]heptan-7-yl)-2-methylcyclopropane-1-sulfonamide], the EC50 was 10 to 100 nM and the Emax was 90 to 100%.

Compound `O=C([C@H]1C[C@H](F)C1)N1CC2(CC2)[C@H](NS(=O)(=O)CF)[C@@H]1Cc1cccc(-c2ccccc2)c1F` [Compound 188] has an EC50 of 1 to 10 nM and an Emax of 90 to 100%.

With `CS(=O)(=O)N[C@@H]1[C@H](Cc2cc(F)cc(-c3cccc(F)c3)c2F)N(C(=O)[C@H]2CCO2)CC12CC2` [Compound 122, N-((6S,7S)-5-((R)-oxetane-2-carbonyl)-6-((2,3′,5-trifluoro-[1,1′-biphenyl]-3-yl)methyl)-5-azaspiro[2.4]heptan-7-yl)methanesulfonamide] the EC50 was 0.0794 to 1 nM and the Emax was 90 to 100%.

`CCNC(=O)N1CC2(CC2)C(NS(=O)(=O)CC)C1Cc1cccc(-c2ccccc2)c1F` (racemic) [Compound 52, N-ethyl-7-(ethylsulfonamido)-6-((2-fluoro-[1,1′-biphenyl]-3-yl)methyl)-5-azaspiro[2.4]heptane-5-carboxamide] gave an EC50 of 0.0794 to 1 nM and an Emax of 90 to 100%.

For `CS(=O)(=O)N[C@@H]1[C@H](Cc2cccc(-c3cccc(F)c3)c2F)N(C(=O)[C@H]2CCO2)CC12CC2` [Compound 67, N-((6S,7S)-6-((2,3′-difluoro-[1,1′-biphenyl]-3-yl)methyl)-5-((R)-oxetane-2-carbonyl)-5-azaspiro[2.4]heptan-7-yl)methanesulfonamide], the EC50 was 1 to 10 nM and the Emax was 90 to 100%.

`COC1CN(C(=O)N2CC3(CC3)[C@H](NS(=O)(=O)CF)[C@@H]2Cc2cccc(-c3cccc(F)c3)c2F)C1` [Compound 400, N-((6S,7S)-6-((2,3′-difluoro-[1,1′-biphenyl]-3-yl)methyl)-5-(3-methoxyazetidine-1-carbonyl)-5-azaspiro[2.4]heptan-7-yl)-1-fluoromethanesulfonamide] gave an EC50 of 1 to 10 nM and an Emax of 90 to 100%.

Compound `CC(C)(O)C(=O)N1CC2(CC2)[C@H](NS(=O)(=O)C(F)F)[C@@H]1Cc1cccc(-c2cccc(F)c2)c1F` [Compound 164, N-((6S,7S)-6-((2,3′-difluoro-[1,1′-biphenyl]-3-yl)methyl)-5-(2-hydroxy-2-methylpropanoyl)-5-azaspiro[2.4]heptan-7-yl)-1,1-difluoromethanesulfonamide] has an EC50 of 10 to 100 nM and an Emax of 80 to 90%.

`CS(=O)(=O)N[C@@H]1[C@H](Cc2cccc(-c3ccccc3)c2F)N(C(=O)NC[C@H]2CCOC2)CC12CC2` [Compound 335, (6S,7S)-6-((2-fluoro-[1,1′-biphenyl]-3-yl)methyl)-7-(methylsulfonamido)-N-(((R)-tetrahydrofuran-3-yl)methyl)-5-azaspiro[2.4]heptane-5-carboxamide] gave an EC50 of 1 to 10 nM and an Emax of 90 to 100%.

`COC1(CNC(=O)N2CC3(CC3)[C@H](NS(C)(=O)=O)[C@@H]2Cc2cccc(-c3ccccc3)c2F)CC1` [Compound 100, (6S,7S)-6-((2-fluoro-[1,1′-biphenyl]-3-yl)methyl)-N-((1-methoxycyclopropyl)methyl)-7-(methylsulfonamido)-5-azaspiro[2.4]heptane-5-carboxamide] showed an EC50 of 0.0794 to 1 nM and an Emax of 90 to 100%.

Compound `COC1CN(C(=O)N2CC3(CC3)[C@H](NS(=O)(=O)CF)[C@@H]2Cc2cccc(-c3cc(F)cc(F)c3)c2F)C1` [Compound 402, 1-fluoro-N-((6S,7S)-5-(3-methoxyazetidine-1-carbonyl)-6-((2,3′,5′-trifluoro-[1,1′-biphenyl]-3-yl)methyl)-5-azaspiro[2.4]heptan-7-yl)methanesulfonamide] has an EC50 of 1 to 10 nM and an Emax of 90 to 100%.

For `N#C[C@]1(C(=O)N2CC3(CC3)[C@H](NS(=O)(=O)C(F)F)[C@@H]2Cc2cccc(-c3ccccc3)c2F)CCO1` [Compound 408, N-((6S,7S)-5-((S)-2-cyanooxetane-2-carbonyl)-6-((2-fluoro-[1,1′-biphenyl]-3-yl)methyl)-5-azaspiro[2.4]heptan-7-yl)-1,1-difluoromethanesulfonamide], the EC50 was 1 to 10 nM and the Emax was 90 to 100%.

For `CNS(=O)(=O)N[C@@H]1[C@H](Cc2cccc(-c3ccccc3)c2)N(C(=O)[C@H]2CCO2)CC12CC2` [Compound 71], the EC50 was 1 to 10 nM and the Emax was 90 to 100%.

Compound `CC(C)(F)S(=O)(=O)N[C@@H]1[C@H](Cc2cccc(-c3ccccc3)c2F)N(C(=O)[C@H]2CCO2)CC12CC2` [Compound 398, 2-fluoro-N-((6S,7S)-6-((2-fluoro-[1,1′-biphenyl]-3-yl)methyl)-5-((R)-oxetane-2-carbonyl)-5-azaspiro[2.4]heptan-7-yl)propane-2-sulfonamide] has an EC50 of 1 to 10 nM and an Emax of 90 to 100%.

`CS(=O)(=O)N[C@@H]1[C@H](Cc2cccc(-c3ccccc3)c2F)N(C(=O)NCC(F)F)CC12CC2` [Compound 112, (6S,7S)-N-(2,2-difluoroethyl)-6-((2-fluoro-[1,1′-biphenyl]-3-yl)methyl)-7-(methylsulfonamido)-5-azaspiro[2.4]heptane-5-carboxamide] was tested, and the EC50 was 0.0794 to 1 nM and the Emax was 90 to 100%.

With `CS(=O)(=O)NC1C(Cc2cccc(-c3cc(F)cc(F)c3)c2F)N(C(=O)C2CCC2)CC12CC2` (racemic) [Compound 29, N-(5-(cyclobutanecarbonyl)-6-((2,3′,5′-trifluoro-[1,1′-biphenyl]-3-yl)methyl)-5-azaspiro[2.4]heptan-7-yl)methanesulfonamide] the EC50 was 0.0794 to 1 nM and the Emax was 90 to 100%.

For `O=C(NCC1(F)CC1)N1CC2(CC2)[C@H](NS(=O)(=O)CF)[C@@H]1Cc1cc(F)cc(-c2cc(F)cc(F)c2)c1F` [Compound 415, (6S,7S)-N-((1-fluorocyclopropyl)methyl)-7-((fluoromethyl)sulfonamido)-6-((2,3′,5,5′-tetrafluoro-[1,1′-biphenyl]-3-yl)methyl)-5-azaspiro[2.4]heptane-5-carboxamide], the EC50 was 1 to 10 nM and the Emax was 90 to 100%.

`CS(=O)(=O)N[C@@H]1[C@H](Cc2cccc(-c3ccccc3)c2F)N(C(=O)NC23CC(F)(C2)C3)CC12CC2` [Compound 319, (6S,7S)-6-((2-fluoro-[1,1′-biphenyl]-3-yl)methyl)-N-(3-fluorobicyclo[1.1.1]pentan-1-yl)-7-(methylsulfonamido)-5-azaspiro[2.4]heptane-5-carboxamide] gave an EC50 of 10 to 100 nM and an Emax of 90 to 100%.

`O=C([C@H](O)CF)N1CC2(CC2)[C@H](NS(=O)(=O)CF)[C@@H]1Cc1cc(F)cc(-c2cc(F)cc(F)c2)c1F` [Compound 373, 1-fluoro-N-((6S,7S)-5-((S)-3-fluoro-2-hydroxypropanoyl)-6-((2,3′,5,5′-tetrafluoro-[1,1′-biphenyl]-3-yl)methyl)-5-azaspiro[2.4]heptan-7-yl)methanesulfonamide] gave an EC50 of 1 to 10 nM and an Emax of 90 to 100%.
